In patent publication US20030219831A1, “Split-hybrid system” (priority 2002, published 2003):

How the values were obtained:
Format in all cases: cell-based
[1] = test system: interactions between RAR and IDII; test: Two-hybrid reporter assay, VP16-RAR and Gal4N-IDII co-expressed with Gal-TK-Luc; conditions: 1 mM retinoid acid; VP16-RAR + Gal4N-IDII, Gal-TK-Luc; ~120 fold without compound
Description: Two fusion proteins, VP16-RAR and Gal4N-IDII, were co-expressed in a cell containing a Gal-TK-Luc reporter gene construct. Unexpectedly, interactions between RAR and IDII led to a ˜120 fold induction of the reporter gene activity. In contrast, in the presence of 1 mM retinoid acid, interactions of IDII with RAR were blocked and induction of the reporter gene activity was reduced to only ˜7 fold.

[2] = test system: interactions between RAR and IDII; test: Retinoid acid split-hybrid system, NLS-HA-Mad-RAR and Gal4N-IDII with Gal-TK-Luc; set-up: dose or concentration left out as unconfirmed; conditions: Gal-TK-Luc, ~7.5 fold repression without compound
Description: (§1) Next, two fusion proteins, NLS (nuclear localization signal)-HA (hemagglutinin)-Mad-RAR and Gal4N-IDII, were co-expressed in a cell containing a Gal-TK-Luc reporter gene construct. Unexpectedly, interactions between RAR and IDII led to a ˜7.5 fold repression of the reporter gene activity.

Gal-TK-Luc = test: Specificity control, Gal-TK-Luc by itself or with co-transfection controls; conditions: Gal-TK-Luc by itself or with controls Gal4N-Mad, Gal4N-IDII and NLS-HA-Mad-RAR
Description: as §1

[3] = test system: interactions of Gal4N-IDII with SMRT-RAR; test: Split-hybrid system, SMRT-RAR and Gal4N-IDII with Gal-RSV-Luc; conditions: Gal-RSV-Luc, 8.5-fold repression without compound
Description: Next, two fusion proteins, SMRT-RAR and Gal4N-IDII, were co-expressed in a cell containing a Gal-RSV-Luc reporter gene construct. Unexpectedly, interactions of Gal4N-IDII with SMRT-RAR conferred 8.5-fold repression. This repression was reversed by retinoid acid treatment.

RAR and IDI1 = test: Split-hybrid system with RED1 reporter, RAR and IDII; conditions: in the presence of retinoid acid

SMILES: CC1=C(/C=C/C(C)=C/C=C/C(C)=C/C(=O)O)C(C)(C)CCC1 [retinoid acid]
- induction of the reporter gene activity [1]: ~7 fold
- reversal of repression of the reporter gene activity [2]: completely reversed
- alteration of reporter gene activity of Gal-TK-Luc (Gal-TK-Luc): did not significantly alter
- reversal of repression of the reporter gene [3]: reversed
- red fluorescence from RED1 reporter (RAR and IDI1): detected
